Laboratory results published in patent US12187701B2, “Taire family kinase inhibitors and uses thereof” (Dana-Farber Cancer Institute, Inc., priority 2018, dated 2025).

Legend:
Cdk14/CycY = Cdk14/CycY (Homo sapiens (Human), UniProt O94921); test: Lanthascreen Eu kinase binding assay for Cdk14/CycY with 30 minute pre-incubation; settings: 30 minute pre-incubation of kinase with compound; read-out: IC50 CDK14 binding by Lanthascreen
Procedure: Lanthascreen Eu kinase binding assays were conducted for Cdk14/CycY largely as performed in the commercial assay service by Life Technologies, but included a 30 minute pre-incubation step of the kinase with candidate compounds to facilitate covalent bond formation.

HCT116 cells = test: Antiproliferation assay, Cell Titer Glo, 72 hours; type: cell-based; settings: Homo sapiens, HCT-116, 72 h
Procedure: HCT116 cells were plated in 384-well plates at 750 cells/well in 50 ul fresh media (McCoy's 5A+10% FBS+1% Penn/Strep) and treated with 0.1 μl candidate compounds in four-fold dilution series using the Janus pinner. Cells were incubated with compounds for 72 hours in 37° C. 5% CO2. Anti-proliferative effects of these compounds were assessed 72 hours after compound addition using Cell Titer Glo (Promega cat #G7571) as described in product manual by luminescence measurements using an Envision platereader. All proliferation assays were performed in biological quadruplicate. IC50 values were determined using a non-linear regression curve fit in GraphPad Prism 6.

Chain of Cdk14/CycY (O94921 whole entry): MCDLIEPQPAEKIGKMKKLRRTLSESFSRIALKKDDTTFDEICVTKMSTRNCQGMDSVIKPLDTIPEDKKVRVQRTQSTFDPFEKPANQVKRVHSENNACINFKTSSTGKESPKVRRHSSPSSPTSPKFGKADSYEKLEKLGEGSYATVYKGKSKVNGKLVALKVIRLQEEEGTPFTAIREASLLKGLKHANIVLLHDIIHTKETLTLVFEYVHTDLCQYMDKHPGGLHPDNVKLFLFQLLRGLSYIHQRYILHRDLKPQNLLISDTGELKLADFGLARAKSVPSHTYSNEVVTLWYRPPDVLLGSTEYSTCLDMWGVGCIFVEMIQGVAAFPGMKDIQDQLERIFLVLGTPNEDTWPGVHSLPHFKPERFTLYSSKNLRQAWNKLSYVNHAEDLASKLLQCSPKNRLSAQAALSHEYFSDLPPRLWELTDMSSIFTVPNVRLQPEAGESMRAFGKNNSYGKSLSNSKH
Chain of Cdk14/CycY (Q8ND76 whole entry partner): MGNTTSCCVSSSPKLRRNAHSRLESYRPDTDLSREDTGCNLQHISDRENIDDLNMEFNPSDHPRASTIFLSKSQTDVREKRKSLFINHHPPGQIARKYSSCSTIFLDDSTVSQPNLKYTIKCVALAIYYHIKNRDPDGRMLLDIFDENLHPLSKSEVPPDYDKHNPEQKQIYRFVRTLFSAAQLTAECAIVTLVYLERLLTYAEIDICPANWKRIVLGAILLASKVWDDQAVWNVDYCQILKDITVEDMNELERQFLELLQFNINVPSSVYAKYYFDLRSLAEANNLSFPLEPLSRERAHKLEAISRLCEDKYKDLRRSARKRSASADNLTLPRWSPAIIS

SMILES | IC50 (Cdk14/CycY) [nM] | IC50 (HCT116 cells) [nM]
C=CC(=O)Nc1ccc(C(=O)Nc2cccc(NC(=O)c3n[nH]cc3NC(=O)c3c(Cl)cccc3Cl)c2)cc1 [FMF-03-203-1, N-(3-(4-acrylamidobenzamido)phenyl)-4-(2,6-dichlorobenzamido)-1H-pyrazole-3-carboxamide] | 609 | 6
CN(C)C/C=C/C(=O)Nc1ccc(C(=O)Nc2cccc(NC(=O)c3n[nH]cc3NC(=O)c3c(Cl)cccc3Cl)c2)cc1 [FMF-03-204-1, (E)-4-(2,6-dichlorobenzamido)-N-(3-(4-(4-(dimethylamino)but-2-enamido)benzamido)phenyl)-1H-pyrazole-3-carboxamide] | 72 | 24
C=CC(=O)Nc1cccc(C(=O)Nc2cccc(NC(=O)c3n[nH]cc3NC(=O)c3c(Cl)cccc3Cl)c2)c1 [FMF-04-011-1, N-(3-(3-acrylamidobenzamido)phenyl)-4-(2,6-dichlorobenzamido)-1H-pyrazole-3-carboxamide] | 308 | 31
C=CC(=O)Nc1ccc(C(=O)Nc2ccc(NC(=O)c3n[nH]cc3NC(=O)c3c(Cl)cccc3Cl)cc2)cc1 [FMF-04-012-1] | 169 | 8
C=CC(=O)Nc1ccc(S(=O)(=O)N2CCC[C@@H](NC(=O)c3n[nH]cc3NC(=O)c3c(Cl)cccc3Cl)C2)cc1 [FMF-04-056-1, (R)—N-(1-((4-acrylamidophenyl)sulfonyl)piperidin-3-yl)-4-(2,6-dichlorobenzamido)-1H-pyrazole-3-carboxamide] | > 1000 | > 10000
C=CC(=O)Nc1cccc(S(=O)(=O)N2CCC[C@@H](NC(=O)c3n[nH]cc3NC(=O)c3c(Cl)cccc3Cl)C2)c1 [FMF-04-057-1, (R)—N-(1-((3-acrylamidophenyl)sulfonyl)piperidin-3-yl)-4-(2,6-dichlorobenzamido)-1H-pyrazole-3-carboxamide] | 836 | > 10000
CN(C)C/C=C/C(=O)Nc1cccc(S(=O)(=O)N2CCC[C@@H](NC(=O)c3n[nH]cc3NC(=O)c3c(Cl)cccc3Cl)C2)c1 [FMF-04-057-2, (R,E)-4-(2,6-dichlorobenzamido)-N-(1-((3-(4-(dimethylamino)but-2-enamido)phenyl)sulfonyl)piperidin-3-yl)-1H-pyrazole-3-carboxamide] | > 1000 | 9840
C=CC(=O)Nc1ccc(C(=O)N2CCC[C@@H](NC(=O)c3n[nH]cc3NC(=O)c3c(Cl)cccc3Cl)C2)cc1 [FMF-04-058-1, (R)—N-(1-(4-acrylamidobenzoyl)piperidin-3-yl)-4-(2,6-dichlorobenzamido)-1H-pyrazole-3-carboxamide] | > 1000 | > 10000
CN(C)C/C=C/C(=O)Nc1ccc(C(=O)N2CCC[C@@H](NC(=O)c3n[nH]cc3NC(=O)c3c(Cl)cccc3Cl)C2)cc1 [FMF-04-058-2, (R,E)-4-(2,6-dichlorobenzamido)-N-(1-(4-(4-(dimethylamino)but-2-enamido)benzoyl)piperidin-3-yl)-1H-pyrazole-3-carboxamide] | > 1000 | 726
C=CC(=O)Nc1cccc(C(=O)N2CCC[C@@H](NC(=O)c3n[nH]cc3NC(=O)c3c(Cl)cccc3Cl)C2)c1 [FMF-04-059-1, (R)—N-(1-(3-acrylamidobenzoyl)piperidin-3-yl)-4-(2,6-dichlorobenzamido)-1H-pyrazole-3-carboxamide] | > 1000 | 4040
CN(C)C/C=C/C(=O)Nc1cccc(C(=O)N2CCC[C@@H](NC(=O)c3n[nH]cc3NC(=O)c3c(Cl)cccc3Cl)C2)c1 [FMF-04-059-2, (R,E)-4-(2,6-dichlorobenzamido)-N-(1-(3-(4-(dimethylamino)but-2-enamido)benzoyl)piperidin-3-yl)-1H-pyrazole-3-carboxamide] | > 1000 | > 10000
Cc1cc(NC(=O)c2cccc(NC(=O)/C=C/CN(C)C)c2)ccc1NC(=O)c1n[nH]cc1NC(=O)c1c(Cl)cccc1Cl [FMF-04-085-2, (E)-4-(2,6-dichlorobenzamido)-N-(4-(3-(4-(dimethylamino)but-2-enamido)benzamido)-2-methylphenyl)-1H-pyrazole-3-carboxamide] | 1160 | 320
C=CC(=O)Nc1cccc(S(=O)(=O)N2CCC(N(C)C(=O)c3n[nH]cc3NC(=O)c3c(Cl)cccc3Cl)CC2)c1 [FMF-04-086-1, N-(1-((3-acrylamidophenyl)sulfonyl)piperidin-4-yl)-4-(2,6-dichlorobenzamido)-N-methyl-1H-pyrazole-3-carboxamide] | > 1000 | > 10000
C=CC(=O)Nc1cccc(S(=O)(=O)N2CCC(NC(=O)c3nscc3NC(=O)c3c(Cl)cccc3Cl)CC2)c1 [FMF-04-089-1, N-(1-((3-acrylamidophenyl)sulfonyl)piperidin-4-yl)-4-(2,6-dichlorobenzamido)isothiazole-3-carboxamide] | > 1000 | 563
C=CC(=O)Nc1cccc(S(=O)(=O)N2CCC(NC(=O)c3c(NC(=O)c4c(Cl)cccc4Cl)cnn3C)CC2)c1 [FMF-04-120-1, N-(1-((3-acrylamidophenyl)sulfonyl)piperidin-4-yl)-4-(2,6-dichlorobenzamido)-1-methyl-1H-pyrazole-5-carboxamide] | > 1000 | 2420
C=CC(=O)Nc1cccc(CN2CCC(NC(=O)c3n[nH]cc3NC(=O)c3c(Cl)cc(Cl)cc3Cl)CC2)c1 [FMF-04-158-1, N-(1-(3-acrylamidobenzyl)piperidin-4-yl)-4-(2,4,6-trichlorobenzamido)-1H-pyrazole-3-carboxamide] | 198 | 11
CN(C)C/C=C/C(=O)Nc1cccc(CN2CCC(NC(=O)c3n[nH]cc3NC(=O)c3c(F)cccc3F)CC2)c1 [FMF-04-160-2, (E)-4-(2,6-difluorobenzamido)-N-(1-(3-(4-(dimethylamino)but-2-enamido)benzyl)piperidin-4-yl)-1H-pyrazole-3-carboxamide] | 223 | 437
C=CC(=O)Nc1cccc(S(=O)(=O)N2CCC(NC(=O)c3n[nH]c(C)c3NC(=O)c3c(Cl)cccc3Cl)CC2)c1 [FMF-04-181-1, N-(1-((3-acrylamidophenyl)sulfonyl)piperidin-4-yl)-4-(2,6-dichlorobenzamido)-5-methyl-1H-pyrazole-3-carboxamide] | > 1000 | > 10000
CN(C)C/C=C/C(=O)Nc1cccc(C(=O)Nc2cccc(NC(=O)c3n[nH]cc3NC(=O)c3c(Cl)cccc3Cl)c2)c1 [FMF-04-196-1, (E)-4-(2,6-dichlorobenzamido)-N-(3-(3-(4-(dimethylamino)but-2-enamido)benzamido)phenyl)-1H-pyrazole-3-carboxamide] | 41 | 366
C=CC(=O)Nc1cccc(CN2CCC(NC(=O)c3n[nH]cc3NC(=O)c3c(F)cc(F)cc3F)CC2)c1 [FMF-04-200-1, N-(1-(3-acrylamidobenzyl)piperidin-4-yl)-4-(2,4,6-trifluorobenzamido)-1H-pyrazole-3-carboxamide] | 31 | 1.9
C=CC(=O)Nc1cccc(S(=O)(=O)N2CCC(NC(=O)c3n[nH]cc3NC(=O)c3ccccc3)CC2)c1 [FMF-05-027-1, N-(1-((3-acrylamidophenyl)sulfonyl)piperidin-4-yl)-4-benzamido-1H-pyrazole-3-carboxamide] | 315 | 382
COc1cc(OC)c(C(=O)Nc2c[nH]nc2C(=O)NC2CCN(S(=O)(=O)c3cccc(NC(=O)/C=C/CN(C)C)c3)CC2)c(OC)c1 [FMF-05-028-2, (E)-N-(1-((3-(4-(dimethylamino)but-2-enamido)phenyl)sulfonyl)piperidin-4-yl)-4-(2,4,6-trimethoxybenzamido)-1H-pyrazole-3-carboxamide] | 221 | > 10000
C=CC(=O)Nc1cccc(S(=O)(=O)N2CC[C@@H](NC(=O)c3n[nH]cc3NC(=O)c3c(Cl)cccc3Cl)C2)c1 [FMF-05-065-1, (R)-N-(1-((3-acrylamidophenyl)sulfonyl)pyrrolidin-3-yl)-4-(2,6-dichlorobenzamido)-1H-pyrazole-3-carboxamide] | > 10000 | 467
C=CC(=O)Nc1ccc(S(=O)(=O)N2CC[C@@H](NC(=O)c3n[nH]cc3NC(=O)c3c(Cl)cccc3Cl)C2)cc1 [FMF-05-066-1, (R)—N-(1-((4-acrylamidophenyl)sulfonyl)pyrrolidin-3-yl)-4-(2,6-dichlorobenzamido)-1H-pyrazole-3-carboxamide] | > 10000 | 3000
C=CC(=O)Nc1cccc(S(=O)(=O)N2CC[C@H](NC(=O)c3n[nH]cc3NC(=O)c3c(Cl)cccc3Cl)C2)c1 [FMF-05-068-1, (S)—N-(1-((3-acrylamidophenyl)sulfonyl)pyrrolidin-3-yl)-4-(2,6-dichlorobenzamido)-1H-pyrazole-3-carboxamide] | 450 | 6200
CN(C)C/C=C/C(=O)Nc1cccc(S(=O)(=O)N2CC[C@H](NC(=O)c3n[nH]cc3NC(=O)c3c(Cl)cccc3Cl)C2)c1 [FMF-05-068-2, (S,E)-4-(2,6-dichlorobenzamido)-N-(1-((3-(4-(dimethylamino)but-2-enamido)phenyl)sulfonyl)pyrrolidin-3-yl)-1H-pyrazole-3-carboxamide] | 308 | > 10000
C=CC(=O)Nc1cccc(CN2CC[C@H](NC(=O)c3n[nH]cc3NC(=O)c3c(Cl)cccc3Cl)C2)c1 [FMF-05-069-1, (S)—N-(1-(3-acrylamidobenzyl)pyrrolidin-3-yl)-4-(2,6-dichlorobenzamido)-1H-pyrazole-3-carboxamide] | 150 | 27
